Where two headings read alike, the source gives them in different places.
Experiments:
HepG2 = assay: cells; conditions: for IC50: read-out: IC50 HepG2; for activity factor IC50(1)/IC50(3a–4d), HepG2: vs corresponding amine (R)-1 or (S)-1, 72 h
From the text: (§1) To assess the impact of conjugating half-sandwich complexes with amines 1 via an imine-pyridine ligand on biological activity, we examined the antiproliferative potential of (R)- and (S)-1 and organometallic conjugates 3a–d and 4a–d in selected human cancer cell lines: alveolar basal epithelial cell adenocarcinoma (A549), colorectal adenocarcinomas (Colo205 and SW620), colorectal carcinoma (HCT116), hepatocellular carcinoma (HepG2), and breast adenocarcinoma (MCF7). The choice of cell lines was dictated by results of previously published clinical trials on ispinesib.[49],[50]
(§2) Cell lines used in this study were purchased from the American Type Culture Collection via LGC Standards. Human normal lung fibroblasts (MRC-5), alveolar basal epithelial cell adenocarcinoma (A549), colorectal adenocarcinoma (Colo205), hepatocellular carcinoma (HepG2), breast adenocarcinoma (MCF7), and colorectal adenocarcinoma (SW620) and its MDR variants[55] were cultured in standard conditions (37 °C, 5% CO2, 100% relative humidity) in high glucose DMEM medium supplemented with GlutaMax, HEPES (ThermoFisher Scientific) and 10% fetal bovine serum (EURx, Poland). All cell lines were tested for Mycoplasma contamination using a MycoProbe mycoplasma detection kit (R&D System).
(§3) For this purpose, neutral red uptake assay was performed. 10^4 of cells were seeded per well of a 96-well plate and left overnight to allow cells to attach to the surface. Then, the cells were exposed to a desired concentration of tested compounds. Stock solutions were prepared in DMSO and were used immediately after preparation. The final concentration of DMSO was constant and nontoxic (0.1% v/v). After 70 h of culture, neutral red was added to the final concentration of 1 mM. After 2 h of incubation with the dye, the medium was aspirated and cells were washed with ice-cold PBS. The dye was released using 100 μL of the solubilizer (1% acetic acid in 50% ethanol) on an orbital shaker (10 min). The absorbance at 540 nm was measured using an EnVision multilabel plate reader (PerkinElmer). […] The IC90 and IC50 parameters were calculated using GraphPad Prism v9 software using the five-parameter nonlinear logistic regression model.

MCF7 = assay: cells; conditions: for IC50: read-out: IC50 MCF7; for activity factor IC50(1)/IC50(3a–4d), MCF7: vs corresponding amine (R)-1 or (S)-1, 72 h
From the text: as §1, §2, §3

Colo205 = assay: cells; conditions: for IC50: read-out: IC50 Colo205; for activity factor IC50(1)/IC50(3a–4d), Colo205: vs corresponding amine (R)-1 or (S)-1, 72 h
From the text: as §1, §2, §3

SW620C = assay: Neutral red uptake antiproliferative assay, MDR line SW620C; type: cell-based, human; conditions: for IC50: exposure time 72 h, n = 3, ABCG2-overexpressing MDR line; for activity factor IC50(1)/IC50(3a–4d), SW620C: vs corresponding amine (R)-1 or (S)-1, 72 h
From the text: (§4) Next, we evaluated the cytotoxicity of the synthesized complexes toward the panel of six multidrug-resistant (MDR) cell lines derived from SW620 and characterized by the overexpression of various ABC proteins, namely, ABCG2 (SW620C and SW620Mito), ABCC1 (SW620M and SW620E), and ABCB1 (SW620D, SW620E, and SW620V) (Table 3, Figures S29 and S32). […] The activity of the complexes derived from the ligand (S)-2 is also considerably higher than that of the compounds containing the ligand (R)-2. The cytotoxicity of both rhodium 4c and iridium 4d complexes is higher than that of amine (S)-1. In the case of 4c, the increase in cytotoxicity is low, with the highest value of 3.7-fold for the SW620Mito line. […] Compound 4d also exerts a 2.1- and 2.6-fold higher cytotoxicity than […] against the SW620C and SW620D lines.
(§5) For this purpose, neutral red uptake assay was performed. […] The results were presented as a percentage of control.

HCT116 = assay: cells; conditions: for IC50: read-out: IC50 HCT116; for activity factor IC50(1)/IC50(3a–4d), HCT116: vs corresponding amine (R)-1 or (S)-1, 72 h
From the text: as §1, §3

SW620 cells = assay: Cell cycle distribution by flow cytometry, SW620; type: cell-based, human; conditions: concentration equal to IC75 of (S)-1 / (R)-1, mean ± SEM, n = 3; for Cell cycle fraction G1, 24 h / Cell cycle fraction G2/M, 24 h / Cell cycle fraction S, 24 h: SW620, 24 h; for Cell cycle fraction G1, 48 h / Cell cycle fraction G2/M, 48 h / Cell cycle fraction S, 48 h: SW620, 48 h
Method: Ispinesib leads to the formation of monopolar mitotic spindles and a blockade of chromosome segregation in cancer cells. Using flow cytometry, we assessed the cell cycle distribution in the SW620 and SW620E cells exposed to the studied compounds for 24 and 48 h. […] Both complexes, 3c and 3d, decrease the percentage of cells in the G1/G0 phase and increase the percentage in the S and G2/M phases. […] Furthermore, prolonged exposure to the compounds increases the percentage of cells in the G2/M phase, with the most intensive effect observed for 3c and 3d.
SW620 and SW620E cells lines (vulnerable and resistant variants, respectively) were seeded in 6-well plates at a density of 10^5 cells per well. […] After 24 h, the cells were trypsinized and fixed with ice-cold 70% v/v ethanol. The cells were stained with 75 μM propidium iodide with 50 Kunitz units of RNase A in PBS for 30 min at 37 °C. All samples were analyzed using a LSRII flow cytometer (Becton Dickinson) at a PE channel ([…]). Cell cycle phase distribution was determined using a built-in cell cycle module (Watson pragmatic algorithm) by FlowJo 7.6.1 software.

A549 = assay: Neutral red uptake antiproliferative assay, A549; conditions: for IC50: read-out: IC50 A549; for activity factor IC50(1)/IC50(3a–4d), A549: vs corresponding amine (R)-1 or (S)-1, 72 h
From the text: as §1, §2, §3

SW620M = assay: Neutral red uptake antiproliferative assay, MDR line SW620M; type: cell-based, human; conditions: for IC50: exposure time 72 h, n = 3, ABCC1-overexpressing MDR line; for activity factor IC50(1)/IC50(3a–4d), SW620M: vs corresponding amine (R)-1 or (S)-1, 72 h
From the text: as §4, §5

SW620Mito = assay: Neutral red uptake antiproliferative assay, MDR line SW620Mito; type: cell-based, human; conditions: for IC50: exposure time 72 h, n = 3, ABCG2-overexpressing MDR line; for activity factor IC50(1)/IC50(3a–4d), SW620Mito: vs corresponding amine (R)-1 or (S)-1, 72 h
From the text: as §4, §5

SW620E = assay: Neutral red uptake antiproliferative assay, MDR line SW620E; type: cell-based, human; conditions: for IC50: exposure time 72 h, n = 3, ABCC1- and ABCB1-overexpressing MDR line; for activity factor IC50(1)/IC50(3a–4d), SW620E: vs corresponding amine (R)-1 or (S)-1, 72 h
From the text: as §4, §5

SW620V = assay: Neutral red uptake antiproliferative assay, MDR line SW620V; type: cell-based, human; conditions: for IC50: exposure time 72 h, n = 3, ABCB1-overexpressing MDR line; for activity factor IC50(1)/IC50(3a–4d), SW620V: vs corresponding amine (R)-1 or (S)-1, 72 h
From the text: as §4, §5

SW620D = assay: Neutral red uptake antiproliferative assay, MDR line SW620D; type: cell-based, human; conditions: for IC50: exposure time 72 h, n = 3, ABCB1-overexpressing MDR line; for activity factor IC50(1)/IC50(3a–4d), SW620D: vs corresponding amine (R)-1 or (S)-1, 72 h
From the text: as §4, §5

SW620 = assay: Neutral red uptake antiproliferative assay, SW620; type: cell-based, human; conditions: for IC50: exposure time 72 h, n = 3, 95% CI given; for activity factor IC50(1)/IC50(3a–4d), SW620: vs corresponding amine (R)-1 or (S)-1, 72 h
From the text: as §1, §2, §3

[1] = exposure time 72 h, n = 3, 95% CI given

| Structure (SMILES) | Cell cycle fraction G1, 24 h (SW620 cells) [%] | Cell cycle fraction G2/M, 24 h (SW620 cells) [%] | Cell cycle fraction S, 24 h (SW620 cells) [%] | Cell cycle fraction G1, 48 h (SW620 cells) [%] | Cell cycle fraction G2/M, 48 h (SW620 cells) [%] | Cell cycle fraction S, 48 h (SW620 cells) [%] | IC50 (HepG2; [1]) [nM] | activity factor IC50(1)/IC50(3a–4d), HepG2 (HepG2) | IC50 (MCF7; [1]) [nM] | activity factor IC50(1)/IC50(3a–4d), MCF7 (MCF7) | IC50 (Colo205; [1]) [nM] | activity factor IC50(1)/IC50(3a–4d), Colo205 (Colo205) | IC50 (SW620C) [µM] | activity factor IC50(1)/IC50(3a–4d), SW620C (SW620C) | IC50 (HCT116; [1]) [nM] | activity factor IC50(1)/IC50(3a–4d), HCT116 (HCT116) | IC50 (A549; [1]) [µM] | activity factor IC50(1)/IC50(3a–4d), A549 (A549) | IC50 (SW620M) [nM] | activity factor IC50(1)/IC50(3a–4d), SW620M (SW620M) | also measured |
| --- | --- | --- | --- | --- | --- | --- | --- | --- | --- | --- | --- | --- | --- | --- | --- | --- | --- | --- | --- | --- | --- |
| CC(C)[C@H](N)c1nc2cc(Cl)ccc2c(=O)n1Cc1ccccc1 [(S)-1, reference compound] | 41.8 ± 1.2 | 37.1 ± 1.2 | 19.5 ± 0.3 | 35.2 ± 1.1 | 42.5 ± 0.6 | 19.9 ± 0.4 |  |  |  |  |  |  |  |  |  |  |  |  |  |  | IC50 (HepG2; Homo sapiens, HepG2, 72 h): 2400 nM; IC50 (MCF7; Homo sapiens, MCF7, 72 h): 3910 nM; IC50 (Colo205; Homo sapiens, COLO 205, 72 h): 6070 nM; IC50 (SW620C; Homo sapiens): 3.33 µM; IC50 (HCT116; Homo sapiens, HCT-116, 72 h): 8060 nM; IC50 (A549; Homo sapiens, A549, 72 h): 7.05 µM; IC50 (SW620M; Homo sapiens): 3460 nM; IC50 (SW620Mito; Homo sapiens): 3.91 µM; IC50 (SW620E; Homo sapiens): 4.05 µM; IC50 (SW620V; Homo sapiens): 3.44 µM; IC50 (SW620D; Homo sapiens): 4.15 µM; IC50 (SW620; Homo sapiens, SW-620): 2870 nM |
| CC(C)[C@H](N=Cc1ccccn1)c1nc2cc(Cl)ccc2c(=O)n1Cc1ccccc1.Cc1ccc(C(C)C)cc1.F[P-](F)(F)(F)(F)F.[Cl-].[Os+2] [Compound 4b, [(cym)Os((S)-2)Cl]PF6] | 51.8 ± 0.2 | 32.6 ± 0.3 | 15.0 ± 0.5 | 41.8 ± 0.4 | 42.7 ± 0.6 | 14.9 ± 0.4 | 1130 | (2.12) | 438 | (8.93) | 904 | (6.71) | 4.54 | (0.738) | 823 | (9.79) | 2.19 | (3.22) | 2450 | (1.41) | increased cytotoxicity vs corresponding amine 1, MCF7 (MCF7): 9 fold; increased cytotoxicity vs corresponding amine 1, Colo205 (Colo205): 7 fold; increased cytotoxicity vs corresponding amine 1, HCT116 (HCT116): 10 fold; IC50 (SW620Mito): 3.78 µM; activity factor IC50(1)/IC50(3a–4d), SW620Mito (SW620Mito): (1.03); IC50 (SW620E): 12.8 µM; activity factor IC50(1)/IC50(3a–4d), SW620E (SW620E): (0.316); IC50 (SW620V): 9.3 µM; activity factor IC50(1)/IC50(3a–4d), SW620V (SW620V): (0.370); IC50 (SW620D): 13.5 µM; activity factor IC50(1)/IC50(3a–4d), SW620D (SW620D): (0.307); IC50 (SW620): 2310 nM; activity factor IC50(1)/IC50(3a–4d), SW620 (SW620): (1.24) |
| CC(C)[C@H](N=Cc1ccccn1)c1nc2cc(Cl)ccc2c(=O)n1Cc1ccccc1.Cc1c(C)c(C)[c-](C)c1C.F[P-](F)(F)(F)(F)F.[Cl-].[Rh+3] [Compound 4c, [(Cp*)Rh((S)-2)Cl]PF6] | 52.6 ± 1.9 | 32.7 ± 2.0 | 13.6 ± 0.3 | 41.6 ± 1.0 | 43.8 ± 1.4 | 13.7 ± 0.4 | 1150 | (2.09) | 1500 | (2.61) | 2890 | (2.10) | 2.97 | (1.12) | 2940 | (2.74) | 3.79 | (1.86) | 2250 | (1.54) | IC50 (SW620Mito): 1.05 µM; increase in cytotoxicity vs corresponding amine 1, SW620Mito (SW620Mito; rounded value): 3.7 fold; activity factor IC50(1)/IC50(3a–4d), SW620Mito (SW620Mito): (3.72); IC50 (SW620E): 6.2 µM; activity factor IC50(1)/IC50(3a–4d), SW620E (SW620E): (0.653); IC50 (SW620V): 2.98 µM; activity factor IC50(1)/IC50(3a–4d), SW620V (SW620V): (1.15); IC50 (SW620D): 6.07 µM; activity factor IC50(1)/IC50(3a–4d), SW620D (SW620D): (0.684); IC50 (SW620): 2240 nM; activity factor IC50(1)/IC50(3a–4d), SW620 (SW620): (1.28) |

From publication PMC11044151, “Development of Half-Sandwich Ru, Os, Rh, and Ir Complexes Bearing the Pyridine-2-ylmethanimine Bidentate Ligand Derived from 7-Chloroquinazolin-4(3H)-one with Enhanced Antiproliferative Activity” (ACS Omega, 2024)
